Measurements taken from US20040082635A1, “Fused cyclic compounds and medicinal use thereof” (priority 2001, published 2004).
Structures can show the parent of a compound that is named as a salt.

Molecular target: T1, HCV polymerase (Hepatitis C virus genotype 1b, UniProt P26663)
T1 construct: a region encoding NS5B (591 amino acids; J Virol 1991 Mar, 65(3), 1105-13) was amplified by PCR; 6 His (N); made in house; host or cells: Escherichia coli
Assay: biochemical
Details: read-out: HCV polymerase inhibitory activity IC50

T1 sequence (P26663 2420-3010): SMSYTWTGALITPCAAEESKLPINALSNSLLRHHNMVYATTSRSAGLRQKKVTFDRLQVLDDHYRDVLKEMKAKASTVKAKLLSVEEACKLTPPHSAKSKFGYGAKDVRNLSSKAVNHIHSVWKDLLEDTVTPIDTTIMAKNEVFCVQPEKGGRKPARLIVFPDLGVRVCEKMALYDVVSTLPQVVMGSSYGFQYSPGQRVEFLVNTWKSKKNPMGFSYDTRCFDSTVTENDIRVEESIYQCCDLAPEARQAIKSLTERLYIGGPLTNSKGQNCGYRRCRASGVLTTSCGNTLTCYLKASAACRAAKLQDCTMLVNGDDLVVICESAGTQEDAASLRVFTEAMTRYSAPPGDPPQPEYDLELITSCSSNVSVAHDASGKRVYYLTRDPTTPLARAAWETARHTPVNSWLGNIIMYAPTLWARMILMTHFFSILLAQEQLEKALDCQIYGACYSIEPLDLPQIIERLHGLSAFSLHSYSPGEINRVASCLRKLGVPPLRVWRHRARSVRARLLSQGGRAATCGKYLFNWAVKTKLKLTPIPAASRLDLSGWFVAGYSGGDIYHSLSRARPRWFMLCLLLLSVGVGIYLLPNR

Row | SMILES | IC50 [µM]
1 | C[S+]([O-])c1ccc(-c2ccc(Cl)cc2)c(COc2ccc(-c3nc4cc(C(=O)O)ccc4n3C3CCCCC3)cc2)c1 (centres unmarked) [Example 298, 2-{4-[2-(4-chlorophenyl)-5-methylsulfinylbenzyloxy]phenyl}-1-cyclohexylbenzimidazole-5-carboxylic acid] | 0.011
2 | O=C(O)c1ccc2c(c1)nc(-c1ccc(OC(c3ccccc3)c3ccccc3)cc1)n2C1CCCC1 [Example 70, 1-cyclopentyl-2-[4-(diphenylmethoxy)phenyl]benzimidazole-5-carboxylic acid] | 0.19
3 | O=C(O)c1ccc2c(c1)nc(-c1ccc(OCc3cc(C(=O)N4CCC(O)CC4)ccc3-c3ccc(Cl)cc3)cc1)n2C1CCCC1 [Example 415, 2-{4-[2-(4-chlorophenyl)-5-(4-hydroxypiperidin-1-ylcarbonyl)benzyloxy]phenyl}-1-cyclopentylbenzimidazole-5-carboxylic acid hydrochloride] | 0.019
4 | CN(C)C(=O)c1ccc(COc2ccc(-c3nc4cc(C(=O)O)ccc4n3C3CCCCC3)cc2)c(-c2ccc(Cl)cc2)c1 [Example 357, 2-{4-[2-(4-chlorophenyl)-4-(dimethylcarbamoyl)benzyloxy]phenyl}-1-cyclohexylbenzimidazole-5-carboxylic acid hydrochloride] | 0.019
5 | CCN(C)C(=O)c1ccc(-c2ccc(Cl)cc2)c(COc2ccc(-c3nc4cc(C(=O)O)ccc4n3C3CCCCC3)c(F)c2)c1 [Example 384, 2-{4-[2-(4-chlorophenyl)-5-(N-ethyl-N-methylcarbamoyl)benzyloxy]-2-fluorophenyl}-1-cyclohexylbenzimidazole-5-carboxylic acid hydrochloride] | 0.016
6 | COc1ccc(-c2cccc(Oc3ccc(-c4nc5cc(C(=O)O)ccc5n4C4CCCCC4)cc3)c2)cc1 [Example 216, 1-cyclohexyl-2-{4-[3-(4-methoxyphenyl)phenoxy]phenyl}-benzimidazole-5-carboxylic acid] | 0.084
7 | COCc1ccc(-c2ccc(Cl)cc2COc2ccc(-c3nc4cc(C(=O)O)ccc4n3C3CCCCC3)cc2)cc1 [Example 295, 2-{4-[3-chloro-6-(4-methoxymethylphenyl)benzyloxy]phenyl}-1-cyclohexylbenzimidazole-5-carboxylic acid] | 0.045
8 | O=C(O)c1ccc2c(c1)nc(-c1ccc(OCc3cc(C(=O)N4CCC(O)CC4)ccc3-c3ccc(Cl)cc3)cc1F)n2C1CCCCC1 [Example 289, 2-{4-[2-(4-chlorophenyl)-5-(4-hydroxypiperidino)-carbonylbenzyloxy]-2-fluorophenyl}-1-cyclohexylbenzimidazole-5-carboxylic acid] | < 0.01
9 | CN(C)S(=O)(=O)c1ccc(-c2ccc(Cl)cc2)c(COc2ccc(-c3nc4cc(C(=O)O)ccc4n3C3CCCCC3)cc2)c1 [Example 279, 2-{4-[2-(4-chlorophenyl)-5-dimethylsulfamoylbenzyloxy]phenyl}-1-cyclohexylbenzimidazole-5-carboxylic acid hydrochloride] | 0.017
10 | O=C(O)c1ccc2c(c1)nc(-c1ccc(OCC(c3ccccc3)c3ccccc3)cc1)n2C1CCCCC1 [Example 125, 1-cyclohexyl-2-[4-(2,2-diphenylethoxy)phenyl]benzimidazole-5-carboxylic acid] | 0.12
11 | NC(=O)c1ccc(-c2ccc(Cl)cc2)c(COc2ccc(-c3nc4cc(C(=O)O)ccc4n3C3CCCCC3)c(F)c2)c1 [Example 270, 2-{4-[3-carbamoyl-6-(4-chlorophenyl)benzyloxy]-2-fluorophenyl}-1cyclohexylbenzimidazole-5-carboxylic acid hydrochloride] | 0.012
12 | O=C(O)c1ccc2c(c1)nc(-c1ccc(OCc3cc(C(=O)N4CCCC4)ccc3-c3ccc(Cl)cc3)cc1F)n2N1CCCCC1 [Example 421, 2-{4-[2-(4-chlorophenyl)-5-(pyrrolidin-1-ylcarbonyl)benzyloxy]-2-fluorophenyl}-1-piperidinobenzimidazole-5-carboxylic acid] | 0.017
13 | O=C(O)c1ccc2c(c1)nc(-c1ccc(Oc3ccc(OCc4ccccc4)cc3)c(F)c1)n2C1CCCCC1 [Example 172, 2-[4-(4-benzyloxyphenoxy)-3-fluorophenyl]-1-cyclohexylbenzimidazole-5-carboxylic acid] | 0.1
14 | O=C(O)c1ccc2c(c1)nc(-c1ccc(OCc3cc(C(=O)NCCc4ccncc4)ccc3-c3ccc(Cl)cc3)cc1)n2C1CCCCC1 [Example 325, 2-{4-[2-(4-chlorophenyl)-5-(2-pyridin-4-ylethylcarbamoyl)-benzyloxy]phenyl}-1-cyclohexylbenzimidazole-5-carboxylic acid dihydrochloride] | 0.019
15 | Cc1cc(OCc2ccccc2-c2ccc(C(F)(F)F)cc2)ccc1-c1nc2cc(C(=O)O)ccc2n1C1CCCCC1 [Example 144, 1-cyclohexyl-2-{2-methyl-4-[2-(4-trifluoromethylphenyl)-benzyloxy]phenyl}benzimidazole-5-carboxylic acid] | 0.19
16 | O=C(O)c1ccc2c(c1)nc(-c1ccc(OC[C@@H]3CCCN3Cc3ccccc3)cc1)n2C1CCCCC1 [Example 165, 2-{4-[{(2S)-1-benzyl-2-pyrrolidinyl}methoxy]phenyl}-1-cyclohexyl-benzimidazole-5-carboxylic acid hydrochloride] | 0.58

Row | SMILES | IC50 [µM]
17 | O=C(O)c1ccc2c(c1)nc(-c1ccc(OCc3cc(OCCN4CCC(O)CC4)ccc3-c3ccc(Cl)cc3)cc1)n2C1CCCCC1 [Example 370, 2-{4-[2-(4-chlorophenyl)-5-{2-(4-hydroxypiperidin-1-yl)ethoxy}benzyloxy]phenyl}-1-cyclohexylbenzimidazole-5-carboxylic acid hydrochloride] | 0.017
18 | O=C(O)c1ccc2c(c1)nc(-c1ccc(Oc3cccc(OCc4ccc(C(F)(F)F)cc4)c3)cc1)n2C1CCCCC1 [Example 210, 1-cyclohexyl-2-{4-[3-(4-trifluoromethylbenzyloxy)phenoxy]phenyl}-benzimidazole-5-carboxylic acid] | 0.31
19 | O=C(O)c1ccc2c(c1)nc(-c1ccc(OC(Cc3ccccc3)Cc3ccccc3)cc1)n2C1CCCCC1 [Example 90, 1-cyclohexyl-2-[4-(dibenzylmethoxy)phenyl]benzimidazole-5-carboxylic acid] | 0.2
20 | CCCCNC(=O)c1ccc(-c2ccc(Cl)cc2)c(COc2ccc(-c3nc4cc(C(=O)O)ccc4n3C3CCCCC3)c(F)c2)c1 [Example 388, 2-{4-[5-(butylcarbamoyl)-2-(4-chlorophenyl)benzyloxy]-2-fluorophenyl}-1-cyclohexylbenzimidazole-5-carboxylic acid hydrochloride] | 0.02
21 | O=C(O)c1ccc2c(c1)nc(-c1ccc(OCc3ccccc3-c3ccc(C(F)(F)F)cc3)cc1)n2C1CCCCC1 [Example 117, 1-cyclohexyl-2-{4-[2-(4-trifluoromethylphenyl)benzyloxy]-phenyl}benzimidazole-5-carboxylic acid] | 0.075
22 | CC(=O)N1CCC(COc2ccccc2Oc2ccc(-c3nc4cc(C(=O)O)ccc4n3C3CCCCC3)cc2)CC1 [Example 175, 2-{4-[2-{(1-acetyl-4-piperidyl)methoxy}phenoxy]phenyl}-1-cyclohexylbenzimidazole-5-carboxylic acid] | 0.29
23 | O=C(O)c1ccc2c(c1)nc(-c1ccc(OCc3sc(CO)nc3-c3ccc(F)cc3)cc1)n2C1CCCCC1 [Example 254, 1-cyclohexyl-2-{4-[{4-(4-fluorophenyl)-2-hydroxymethyl-5-thiazolyl}methoxy]phenyl}benzimidazole-5-carboxylic acid] | 0.038
24 | O=C(O)c1ccc2c(c1)nc(-c1ccc(Oc3cccc(-c4cccnc4)c3)cc1)n2C1CCCCC1 [Example 214, 1-cyclohexyl-2-{4-[3-(3-pyridyl)phenoxy]phenyl}benzimidazole-5-carboxylic acid] | 0.059
25 | O=C(O)c1ccc2c(c1)nc(-c1ccc(Oc3cccc(OCc4ccnc(Cl)c4)c3)cc1)n2C1CCCCC1 [Example 227, 2-{4-[3-{(2-chloro-4-pyridyl)methoxy}phenoxy]phenyl}-1-cyclohexylbenzimidazole-5-carboxylic acid] | 0.045
26 | CC(C)CCOc1cccc(Oc2ccc(-c3nc4cc(C(=O)O)ccc4n3C3CCCCC3)cc2)c1 [Example 115, 1-cyclohexyl-2-[4-(3-isopentyloxyphenoxy)phenyl]benzimidazole-5-carboxylic acid] | 0.17
27 | O=C(O)c1ccc2c(c1)nc(-c1ccc(OCc3cccc4ccccc34)cc1)n2C1CCCCC1 [Example 86, 1-cyclohexyl-2-[4-(1-naphthyl)methoxyphenyl]benzimidazole-5-carboxylic acid] | 0.13
28 | O=C(O)c1ccc2c(c1)nc(-c1ccc(Oc3cc(OCc4ccccc4)ncn3)cc1)n2C1CCCCC1 [Example 238, 2-[4-(4-benzyloxy-6-pyrimidinyloxy)phenyl]-1-cyclohexylbenzimidazole-5-carboxylic acid] | 0.19
29 | CCC(=O)N(C)c1ccc(-c2ccc(Cl)cc2)c(COc2ccc(-c3nc4cc(C(=O)O)ccc4n3C3CCCCC3)c(F)c2)c1 [Example 466, 2-[4-{2-(4-chlorophenyl)-5-[N-(ethylcarbonyl)-N-methylamino]-benzyloxy}-2-fluorophenyl]-1-cyclohexylbenzimidazole-5-carboxylic acid hydrochloride] | 0.023
30 | CC(C)(C)c1ccc(COc2cccc(Oc3ccc(-c4nc5cc(C(=O)O)ccc5n4C4CCCCC4)cc3)c2)cc1 [Example 212, 2-{4-[3-(4-tert-butylbenzyloxy)phenoxy]phenyl}-1-cyclohexylbenzimidazole-5-carboxylic acid] | 0.23
31 | CC(C)NC(=O)c1ccc(-c2cc(Cl)cc(Cl)c2)c(COc2ccc(-c3nc4cc(C(=O)O)ccc4n3C3CCCCC3)c(F)c2)c1 [Example 398, 2-{4-[2-(3,5-dichlorophenyl)-5-(isopropylcarbamoyl)benzyloxy]-2-fluorophenyl}-1-cyclohexylbenzimidazole-5-carboxylic acid hydrochloride] | 0.077
32 | O=C(O)c1ccc2c(c1)nc(-c1ccc(Oc3ccccc3OCC3CCNCC3)cc1)n2C1CCCCC1 [Example 160, 1-cyclohexyl-2-{4-[2-(4-piperidylmethoxy)phenoxy]phenyl}-benzimidazole-5-carboxylic acid hydrochloride] | 0.24
